Experimental data reported in patent publication US20240344095A1, “PROCESS FOR THE PRODUCTION OF MICROBIAL CELLULOSE USING WASTE TEXTILES” (Sanko Tekstil Isletmeleri San. Ve Tic. A.S., priority 2023, published 2024).

System: Gluconacetobacter hansenii ATCC 53582
Test: Effect of additives in waste textile glucose medium on bacterial cellulose production
Assay type: cell-based
Details: 14 days
Procedure: The bacterial strain Gluconacetobacter hansenii ATCC 53582 was grown in 500 mL of waste textile glucose medium at an incubation temperature of 28° C.-30° C., for 14 days, in a close-lid plastic box. Different experiments were carried out to test the effect of the addition of different additives (TiBALDH, Glycerol, Ascorbic Acid) in different concentration on the production of bacterial cellulose. At the end of the incubation, the amount of the wet bacterial cellulose obtained was determined. Comparisons of wet bacterial amount change (%) in Table 2, 3, 4, and 5 are based on data in Table 1.

[1] = additives marked + at 0.5% Vitamin C, 1% Glycerol, 0.25% TiBALDH in WTG medium

Molecule	Wet BC amount change (Glycerol Concentration 0.5 % in WTG medium, compared with Table 1) [%]	Wet BC amount change (Glycerol Concentration 1.0 % in WTG medium, compared with Table 1) [%]	Wet BC amount change (Glycerol Concentration 2.0 % in WTG medium, compared with Table 1) [%]	Wet BC amount change [1] [%]	Wet BC amount change (Vitamin C Concentration 0.25 % in WTG medium, compared with Table 1) [%]	Wet BC amount change (Vitamin C Concentration 0.50 % in WTG medium, compared with Table 1) [%]	Wet BC amount change (Vitamin C Concentration 1.00 % in WTG medium, compared with Table 1) [%]	Wet BC amount change (Vitamin C Concentration 2.00 % in WTG medium, compared with Table 1) [%]	Wet BC amount change (Vitamin C Concentration 3.00 % in WTG medium, compared with Table 1) [%]	Wet BC amount change (Vitamin C Concentration 4.00 % in WTG medium, compared with Table 1) [%]	Wet BC amount change (TiBALDH Concentration 0.0050 % in WTG medium, compared with Table 1) [%]	Wet BC amount change (TiBALDH Concentration 0.0250 % in WTG medium, compared with Table 1) [%]	Wet BC amount change (TiBALDH Concentration 0.0500 % in WTG medium, compared with Table 1) [%]	Wet BC amount change (TiBALDH Concentration 0.2500 % in WTG medium, compared with Table 1) [%]	Wet BC amount change (TiBALDH Concentration 0.5000 % in WTG medium, compared with Table 1) [%]	Wet BC amount change (TiBALDH Concentration 1.0000 % in WTG medium, compared with Table 1) [%]
OCC(O)CO [Glycerol, glycerol]	10.93	19.74	10.15	19.74	–	–	–	–	–	–	–	–	–	–	–	–
O=C1O[C@H]([C@@H](O)CO)C(O)=C1O [Vitamin C, ascorbic acid]	–	–	–	9.25	6.75	9.25	8.13	6.95	5.57	2.96	–	–	–	–	–	–
Titanium (IV) bis-(ammonium lactato) dihydroxide [TiBALDH]	–	–	–	55.30	–	–	–	–	–	–	7.04	18.10	24.13	55.30	17.10	−26.79
